Experimental data: ChEMBL document CHEMBL1128491, “Flexible 1-[(2-aminoethoxy)alkyl]-3-ar(o)yl(thio)ureas as novel acetylcholinesterase inhibitors. Synthesis and biochemical evaluation” (J Med Chem, 1995)

Target: T1, Acetylcholinesterase (Rattus norvegicus, UniProt P37136)
T1 sequence (P37136 whole entry): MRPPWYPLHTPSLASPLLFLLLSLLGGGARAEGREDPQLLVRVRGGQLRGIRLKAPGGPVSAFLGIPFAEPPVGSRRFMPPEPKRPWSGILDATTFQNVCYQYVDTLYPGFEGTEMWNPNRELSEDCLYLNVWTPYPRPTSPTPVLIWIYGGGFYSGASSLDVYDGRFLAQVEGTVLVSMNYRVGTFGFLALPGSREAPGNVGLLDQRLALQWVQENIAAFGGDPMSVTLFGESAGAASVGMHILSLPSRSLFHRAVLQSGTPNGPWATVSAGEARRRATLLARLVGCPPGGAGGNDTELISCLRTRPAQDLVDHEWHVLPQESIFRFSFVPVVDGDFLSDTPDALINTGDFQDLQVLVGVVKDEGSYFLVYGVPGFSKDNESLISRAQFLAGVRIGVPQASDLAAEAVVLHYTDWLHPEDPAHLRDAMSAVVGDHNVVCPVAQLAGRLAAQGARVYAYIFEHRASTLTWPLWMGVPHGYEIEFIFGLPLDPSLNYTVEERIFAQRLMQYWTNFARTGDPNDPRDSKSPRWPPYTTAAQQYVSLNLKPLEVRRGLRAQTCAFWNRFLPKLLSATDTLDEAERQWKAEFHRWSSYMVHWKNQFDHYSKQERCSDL
Description: In vitro inhibitory effect on rat Acetylcholinesterase

Row | SMILES | IC50 [nM]
1 | Cc1ccc(C(=O)NC(=S)NCCOCCN(C)Cc2ccccc2)cc1 | 77
2 | CN(CCOCCNC(=S)NC(=O)c1ccc(Cl)c(Cl)c1)Cc1ccccc1 | 55
3 | CN(CCOCCCNC(=S)NC(=O)c1ccccc1)Cc1ccccc1 | 1100
4 | CN(CCOCCNC(=S)NC(=O)c1ccccc1)Cc1ccccc1 | 120
5 | CN(CCOCCNC(=S)NC(=O)C1=CC2C(=O)c3ccccc3C(=O)C2C=C1)Cc1ccccc1 (configuration not stated) | 6
6 | COc1ccc(NC(=S)NCCOCCN(C)Cc2cccc([N+](=O)[O-])c2)cc1OC | 1500
7 | CN(CCOCCNC(=S)NC(=O)c1ccc(-c2ccccc2)cc1)Cc1ccccc1 | 230
8 | CN(CCOCCNC(=O)Nc1ccc([N+](=O)[O-])cc1)Cc1ccccc1 | 2300
9 | CN(CCOCC/N=C(\S)Nc1cccnc1)Cc1ccccc1 | 4000
10 | CN(CCOCCNC(=S)Nc1cccc2ccccc12)Cc1ccccc1 | > 10000
11 | CN(CCOCCNC(S)=NC(=O)c1cccc([N+](=O)[O-])c1)Cc1ccccc1 | 15
12 | CN(CCOCCNC(=S)NC(=O)c1ccccc1)C1CCCCC1 | 13
13 | COc1ccc(C(=O)NC(=S)NCCOCCN(C)Cc2ccccc2)cc1 | 26
14 | CN(CCOCCNC(=S)NC1CCCCC1)Cc1ccccc1 | 1400
15 | CN(CCOCCNC(=S)NC(=O)c1ccc2c(c1)-c1ccccc1C2=O)Cc1ccccc1 | 30
16 | CN(CCOCCNC(=S)Nc1ccc(OC(F)(F)F)cc1)Cc1ccccc1 | 1000
17 | CCN(CCOCCNC(=O)NCc1ccccc1)CC1CCCCC1 | > 10000
